Measurements reported in patent publication EP0393640B1, “A monoclonal antibody recognizing C-terminus of ANP” (SHIONOGI SEIYAKU KABUSHIKI KAISHA trading under the name of …, priority 1989, dated 1990).
Ends that are not written are not given here.

Assays:
Format in all cases: binding, mouse
AN117 = assay: Cross-reactivity of ANP-related polypeptides in the α-hANP radioimmunoassay with AN117; conditions: ascitic fluid AN117A
Experimental: (§1) Using peptide and peptide fragment relating to α-hANP as a sample in α-hANP radioimmunoassay to be described in Example 5, cross reactivity was measured. It was confirmed that both of AN111 and AN117 recognize the C-terminus of α-hANP. Table 1 Assay buffer solution : 0.1 M phosphate buffer solution (pH 7.0) containing 0.372 g of disodium ethylenediamine tetraacetate, 0.063 g of cystine dihydrochloride, 0.262 g of ε-aminocaproic acid, 0.1g of sodium azide and 1 g of bovine serum albumin per liter. Dilute ascitic fluid : A[…] 110,000-fold diluted with Assay buffer solution or A[…] 62,000-fold diluted with Assay buffer solution. α-hANP standard : α-hANP serially two-fold diluted at a range of concentrations from 3.13 ng/ml to 100 ng/ml. 125 I -labelled α-hANP : 125I-labelled α-hANP (Amersham) diluted with Assay buffer solution up to approximately 3.7 KBq/ml. 1 % Bovine gamma globulin : dissolved in Assay buffer solution 37.5 % Polyethylene glycol : polyethylene glycol 6000 dissolved in Assay buffer solution without bovine serum albumin To a tube charged with 100 »l of α-hANP standard or a sample, 100 »l of 125I-labelled α-hANP, 100 »l of dilute ascitic fluid and 200 »l of 1 % bovine gamma globulin were added and the mixture was incubated overnight at 4 °C. […] After removing the supernatant, the radioactivity of the precipitate is measured by a gamma counter (Aloka, ARC-600 type)

AN111 = assay: Cross-reactivity of ANP-related polypeptides in the α-hANP radioimmunoassay with AN111; conditions: ascitic fluid AN111A
Experimental: as §1

[1] = tested on: AN111 as an immobilized antibody, ¹²⁵I-labelled KY-ANP-I; assay: Cross-reactivity of ANP-related peptides in the sandwich radioimmunoassay (one-step); conditions: one-step assay, AN111 immobilized on beads
Description: Anti-α-ANP [17-28] monoclonal antibody produced by the above hybridoma clone AN111 or AN117 (the antibody is hereinafter referred to as AN111 or AN117) which was immobilized on beads was used as an immobilized antibody. As a labelled antibody, anti-α-hANP [1 -28] monoclonal antibody produced by hybridoma clone KY-ANP-I (ECACC 87082001, EP-A-0 306 309) (the antibody is hereinafter referred to as KY-ANP-I) which was labelled with 125I was used. By the above antibodies, a sandwich radioimmunoassay of α-hANP was established. In 0.05 M phosphate buffer (pH 7.4) containing the IgG fraction (100 »g/ml) of A[…] or A[…] prepared in Item 1 above are immersed polystyrene beads (Ichico, 3.2 mm diameter) and allowed to stand at 4 °C for 20 hr. […] Radioactivity of 125 I -labelled antibody bound to the solid phase was measured by a gamma counter. A standard curve was prepared by plotting a concentration of α-hANP standard at abscissa and the measured radioactivity at ordinate. An ANP concentration in plasma was calculated by applying the radioactivity from the plasma sample to the standard curve. […]

Substance: β-hANP: antiparallel dimer of α-hANP (SLRRSSCFGGRMDRIGAQSGLGCNSFRY; ends and bridges not checked; also: antiparallel dimer of α-hANP; UniProt P01160 124-151, looked up)
- Cross-reactivity (%) AN117 (AN117): 136%
- Cross-reactivity (%) AN111 (AN111): 142%
- Cross-Reactivity (Molar %) [1]: 100 Molar %
